The values that follow are results of earlier work, collected in US6211152A, “Formulations for peptide release” (Peptech Limited, priority 1995, dated 2001).

One data set has as its system dogs/bitches. Conditions: overdosing dogs/bitches.
For another data set, the system named is prostate cancer in rats. Conditions: microencapsulated form, controlled dose over 30 days, vs daily subcutaneous equivalent or double doses of free peptide.

Consider `CC(C)C[C@H](NC(=O)[C@@H](Cc1ccc2ccccc2c1)NC(=O)[C@H](Cc1ccc(O)cc1)NC(=O)[C@H](CO)NC(=O)[C@H](Cc1c[nH]c2ccccc12)NC(=O)[C@H](Cc1c[nH]cn1)NC(=O)[C@@H]1CCC(=O)N1)C(=O)N[C@@H](CCCNC(=N)N)C(=O)N1CCC[C@H]1C(=O)NCC(N)=O` [nafarelin], for which the “period of shut down of reproductive function” value with dogs/bitches is “three to eighteen”.

With [D Trp^6 ] LH-RH, the “suppressing serum testosterone levels and prostate tumour weight” value in the data set with prostate cancer in rats was “more effective”.
